Data: patent US20250295631A1, “NOVEL TREATMENT” (University of Liverpool, priority 2022, published 2025)
Values joined by “and” are separate entries in the source; they are usually repeats but may differ in a detail not shown here. Equal entries are not always repeated. “Also recorded” adds a separate entry of the source. Where two headings read alike, the source gives them in different places.

How the values were obtained:
ex vivo porcine corneas = assay: Ex vivo tensile testing of cross-linked porcine corneas (elastic modulus); parameters: species or system domestic pig (Sus domesticus)
Description: Eyes of the domestic pig (Sus domesticus) are collected from a local abattoir 0-4 hours post-mortem. Eyes are cleaned of excess tissue and fat and washed in PBS containing 200 U penicillin and 0.2 mg/ml streptomycin and 5 μg/ml amphotericin B (Merch Life Science, Dorset, UK). The eyes are stored in a petri dish containing the PBS antibiotic/antimycotic solution, corneas facing up, at 4° C. overnight.
The porcine eyes are removed from 4° C. and allowed to warm to room temperature. One-to-two drops of Minims Proxymetacaine hydrochloride 0.5% w/v (Bosch & Lomb, Surrey, UK) were applied to the cornea for 15 minutes, with additional drops added ever 5 minutes and then 2-3 minutes before treatment. After which a suction ring (E.Janach, Como, Italy) was attached to the cornea (FIG. 1) and 200 μl of BS^3 solution was added inside the ring. Eyes were incubated for 5, 15 or 30 mins at 37° C.; after which the BS^3 solution was aspirated and retained for pH measurement, and eyes were rinsed in PBS then stored, cornea facing down, in a 6-well plate with fresh PBS until tensile measurement.
Suction rings were applied to porcine corneas as in FIG. 1 and 18% ethanol solution was applied for 30 seconds before being adsorbed by a sponge spear. The cornea was then rinsed with PBS. After this the epithelium was removed with a corneal scraper and sponge spear. Once the epithelium was removed 0.1% riboflavin (Vibex Rapid™, Avedro Inc, MA, USA) was applied every 3 mins. Riboflavin was applied for a total of 30 mins for the Dresden protocol and 15 minutes for the Accelerated protocol.
After riboflavin treatment eyes were cross-linked by UVA light using and KXL System (Avedro Inc). UV light was applied at 3 mW/cm^2 for 30 mins for the Dresden protocol and 6 mW/cm^2 for 15 mins for the Accelerated protocol for a total applied energy of 5.4 J/cm^2 for both protocols.
The anterior section of the eye was removed by cutting around the globe 5-10 mm posteriorly from the limbus. The iris and ciliary process were removed from the posterior section of the tissue leaving only sclera and cornea. A strip of tissue was cut using a custom-made replaceable razor blade jig. Tissue thickness and width (determined as the distance between cutting edges) were measured with calipers.
(§1) The tissue strip was mounted in the grips of a Univert tensile tester (CellScale, Ontario, Canada) with a 50 N load cell. Tissue was stretched at a rate of 125 μm/s until failure. Data was captured at 1 Hz. Stress-strain curves were plotted and the elastic modulus was determined at a range of strains: 5-10%, 10-15%, 20-25% and 30-35%. Data were trimmed to 3% from the strain at ultimate tensile strain and 6 term polynomial equations we determined from each curve. […] These polynomials represent the stress-stain response of each cornea and were used to create an average stress-strain curve for the samples.
Ex vivo mechanical data were compared by One-way ANOVA and Tukey's post-hoc.

[1] = system: inflammatory cytokines in rat aqueous humour; details: in vivo
Description: (§2) Male Wistar rats (300 g) and mixed sex New Zealand rabbits (1.5-3 kg), both specific-antigen free, were ordered from Charles River UK and ENVIGO, respectively. They were allowed a minimum of 7 days acclimatisation prior to procedures. Animals were anaesthetised and proxymetacaine hydrochloride 0.5% w/v was applied to the corneas. For the rats, a 2 cm section of silicone tubing was placed on the cornea whereas for the rabbits the suction ring (as above) was placed on the cornea, and 200 μl of the sterile filtered 0.2 M BS^3 solution was instilled for 15 mins. Following this, eyes were rinsed with saline. Animals were provided with antibiotic/steroid drops (Tobradex, Novartis Pharmaceuticals UK Ltd, London, UK) daily and were monitored for any signs for distress or ocular discomfort.
(§3) The animals were euthanised at pre-determined time points (rats at 24 hours and 7 days; rabbits at 3 days post-treatment). Aqueous humour was collected. Rat ocular tissue was collected and fixed in 10% paraformaldehyde for histology. Rabbit the eyes enucleated and prepared for mechanical testing which was conducted the following day and the remaining cornea was fixed. Ocular tissue was also fixed in 10% paraformaldehyde.
(§4) Statistical analyses were performed with Prism 9.3.1 (GraphPad Software, San Diego, CA, USA). In vivo data were compared by paired t-tests to contralateral control eyes.

rabbit corneas [2] = assay: Rabbit corneal tensile measurements after in vivo treatment; parameters: species or system New Zealand rabbits; details: for Percentage Change in Modulus After 3 Days Compared to Control / Percentage Change in Modulus Compared to Control: 0.2M BS^3 for 15 mins; for Percentage Change in Modulus After 3 Days Compared to Control: 3 days after treatment; for Percentage Change in Modulus Compared to Control: 28 days after treatment
Description: as §1, §2
as §3, with “Aqueous” for “The animals were euthanised at pre-determined time points (rats at 24 hours and 7 days; rabbits at 3 days post-treatment). Aqueous”
Rabbit eyes were collected immediately after culling and were stored in a petri dish containing the PBS antibiotic/antimycotic solution, corneas facing up, at 4° C. overnight. Mechanical testing was conducted using the protocol above for ex vivo porcine tissue.
as §4

[3] = Description: To investigate cross-linker stability 0.2 M BS^3 was prepared in various buffers. The pH was measured using a SevenGO SG2 pH meter with an InLab Ultra-Micro-ISM electrode (Mettler Toldedo, Leicester, UK). Nine carbonate buffer and two phosphate buffer formulations were investigated. All were prepared in deionised H2O. Formulations can be seen in Table 1 below. The pH of BS^3 at concentrations of 0.2 M and 0.035 M (20 mg/ml as per patent US2014/0271897 A1 claim [0358]) in phosphate buffered saline (PBS) were also measured. The pH was measured immediately after addition BS3 and filtration (00:00) then at 30 mins, 1 hour, 2 hours, 3 hours, 4 hours, 24 hours.
BS^3 (bis(sulfosuccinimidyl)suberate, Thermo Scientific Pierce, IL, USA) solutions was prepared to concentrations of 0.2 M in the buffer solution, vortexed for 1 min and then filtered through 0.2 μm filter.

rat corneas = details: in vivo
Description: as §2
(§5) The animals were euthanised at pre-determined time points (rats at 24 hours and 7 days; rabbits at 3 days post-treatment). Aqueous humour was collected. Rat ocular tissue was collected and fixed in 10% paraformaldehyde for histology. […]
(§6) Corneal thickness and transparency were determined using optical coherence tomography (OCT) (ENVISU R2210, Leica Microsystems, Milton Keynes, UK) before treatment and prior to euthanasia. Corneal transparency was determined by the intensity of the pixels within the cornea minus background intensity from the corneal sections of the OCT images. […]

rabbit corneas [4] = details: in vivo
Description: as §2, §5, §6

[5] = Dresden UV/riboflavin protocol, strain range 5-10%
[6] = Accelerated UV/Riboflavin protocol, strain range 5-10%

## Cc1cc2nc3c(=O)[nH]c(=O)nc-3n(C[C@H](O)[C@H](O)[C@H](O)CO)c2cc1C [Dresden, riboflavin, reference compound]
Ex vivo porcine corneas; [5]
  Percentage Change in Modulus Compared to Control: 158%
  elastic modulus: 7.99±4.58 MPa
Ex vivo porcine corneas; Dresden UV/riboflavin protocol, strain range 10-15%
  Percentage Change in Modulus Compared to Control: 123% and 124%
Ex vivo porcine corneas; Dresden UV/riboflavin protocol, strain range 20-25%
  Percentage Change in Modulus Compared to Control: 62%
Ex vivo porcine corneas; Dresden UV/riboflavin protocol, strain range 30-35%
  Percentage Change in Modulus Compared to Control: 34%

## Cc1cc2nc3c(=O)[nH]c(=O)nc-3n(C[C@H](O)[C@H](O)[C@H](O)CO)c2cc1C [Accelerated, riboflavin, reference compound]
Ex vivo porcine corneas; [6]
  Percentage Change in Modulus Compared to Control: 79%
  difference in elastic modulus compared to control: not significantly different
  elastic modulus: 5.45±2.97 MPa
Ex vivo porcine corneas; Accelerated UV/riboflavin protocol, strain range 10-15%
  Percentage Change in Modulus Compared to Control: 46%
Ex vivo porcine corneas; Accelerated UV/riboflavin protocol, strain range 20-25%
  Percentage Change in Modulus Compared to Control: 28%
Ex vivo porcine corneas; Accelerated UV/riboflavin protocol, strain range 30-35%
  Percentage Change in Modulus Compared to Control: 16%

## bis(sulfosuccinimidyl)suberate [BS3]
[1]
  change in IL-2 in aqueous humour, treated vs control eyes: −0.76 fold
  change in IL-4 in aqueous humour, treated vs control eyes: −0.63 fold
  reductions in IL-2 and IL-4 in aqueous humour: resolved by day 7
Rabbit corneas [2]; strain range 5-10%
  Percentage Change in Modulus After 3 Days Compared to Control: −6%
  Percentage Change in Modulus Compared to Control: 22%
Rabbit corneas [2]; strain range 10-15%
  Percentage Change in Modulus After 3 Days Compared to Control: 15%
  Percentage Change in Modulus Compared to Control: 29%
Rabbit corneas [2]; strain range 15-20%
  Percentage Change in Modulus After 3 Days Compared to Control: 43%
  Percentage Change in Modulus Compared to Control: 28%
Rabbit corneas [2]; strain range 20-25%
  Percentage Change in Modulus After 3 Days Compared to Control: 104%
  Percentage Change in Modulus Compared to Control: 38%
Rabbit corneas [2]; 3 days, lower strain ranges (5-10% & 10-15%)
  effect on stiffness of corneal tissue vs untreated control eye: No significant difference; also recorded: insignificant effect
Rabbit corneas [2]; 28 days, lowest and highest strain ranges
  effect on stiffness of corneal tissue vs untreated control eye: No significant difference
[3]; 20 mg/ml (0.035 M) BS^3 in PBS (Dulbecco A), formulation of US2014/0271897 A1 [0358]
  pH by 30 minutes: 5.18
[3]; 0.2 M BS^3 in 0.1 M and 0.2 M carbonate buffers, at 24 hours
  precipitation: Precipitation was observed
[3]; 0.2 M BS^3 in 0.5 M carbonate buffers
  initial pH after the addition of 0.2 M BS^3: > 7
[3]; 0.2 M BS^3 in 0.5 M carbonate:bicarbonate buffer, ratio 5:5
  pH over the 24 hour testing period: > 6
[3]; 0.2 M BS^3 in 0.5 M carbonate:bicarbonate buffer, ratio 5:5, 24 hour testing period
  precipitation: did not have any precipitation
[3]; 0.2 M BS^3 in 0.5 M carbonate:bicarbonate buffer, ratio 9:1
  pH over the 24 hour testing period: > 6
[3]; 0.2 M BS^3 in 0.5 M carbonate:bicarbonate buffer, ratio 9:1, 24 hour testing period
  precipitation: did not have any precipitation
Ex vivo porcine corneas; 20 mg/ml (0.035 M) BS3 in PBS (US2014/0271897 A1 [0358]), strain range 5-10%
  Percentage Change in Modulus Compared to Control: −28%
Ex vivo porcine corneas; 20 mg/ml (0.035 M) BS3 in PBS (US2014/0271897 A1 [0358]), strain range 10-15%
  Percentage Change in Modulus Compared to Control: −10%
Ex vivo porcine corneas; 20 mg/ml (0.035 M) BS3 in PBS (US2014/0271897 A1 [0358]), strain range 20-25%
  Percentage Change in Modulus Compared to Control: 3%
Ex vivo porcine corneas; 20 mg/ml (0.035 M) BS3 in PBS (US2014/0271897 A1 [0358]), strain range 30-35%
  Percentage Change in Modulus Compared to Control: 15%
Ex vivo porcine corneas; 20 mg/ml (0.035 M) BS^3 in PBS, any of the strain ranges, p>0.05
  difference in elastic modulus compared to control: no significant difference
Ex vivo porcine corneas; 0.2M BS3, 5 min treatment, strain range 5-10%
  Percentage Change in Modulus Compared to Control: 76%
Ex vivo porcine corneas; 0.2M BS3, 5 min treatment, strain range 10-15%
  Percentage Change in Modulus Compared to Control: 60%
Ex vivo porcine corneas; 0.2M BS3, 5 min treatment, strain range 20-25%
  Percentage Change in Modulus Compared to Control: 42%
Ex vivo porcine corneas; 0.2M BS3, 5 min treatment, strain range 30-35%
  Percentage Change in Modulus Compared to Control: 12%
Ex vivo porcine corneas; 0.2M BS3, 15 min treatment, strain range 5-10%
  Percentage Change in Modulus Compared to Control: 109%
Ex vivo porcine corneas; 0.2M BS3, 15 min treatment, strain range 5-10%, listed as BS^3
  Percentage Change in Modulus Compared to Control: 109%
Ex vivo porcine corneas; 0.2M BS3, 15 min treatment, strain range 10-15%
  Percentage Change in Modulus Compared to Control: 68%
Ex vivo porcine corneas; 0.2M BS3, 15 min treatment, strain range 10-15%, listed as BS^3
  Percentage Change in Modulus Compared to Control: 68%
Ex vivo porcine corneas; 0.2M BS3, 15 min treatment, strain range 20-25%
  Percentage Change in Modulus Compared to Control: 43%
Ex vivo porcine corneas; 0.2M BS3, 15 min treatment, strain range 30-35%
  Percentage Change in Modulus Compared to Control: 18%
Ex vivo porcine corneas; 0.2M BS3, 15 min treatment, strain range 30-35%, listed as BS^3
  Percentage Change in Modulus Compared to Control: 18%
Ex vivo porcine corneas; 0.2M BS3, 30 min treatment, strain range 5-10%
  Percentage Change in Modulus Compared to Control: 56%
Ex vivo porcine corneas; 0.2M BS3, 30 min treatment, strain range 10-15%
  Percentage Change in Modulus Compared to Control: 54%
Ex vivo porcine corneas; 0.2M BS3, 30 min treatment, strain range 20-25%
  Percentage Change in Modulus Compared to Control: 45%
Ex vivo porcine corneas; 0.2M BS3, 30 min treatment, strain range 30-35%
  Percentage Change in Modulus Compared to Control: 22%
Ex vivo porcine corneas; 0.2 M BS^3 in 0.5 M carbonate:bicarbonate 9:1, 5 min treatment, strain range 5-10%
  stiffness (elastic modulus): 5.43±2.23 MPa
Ex vivo porcine corneas; 0.2 M BS^3 in 0.5 M carbonate:bicarbonate 9:1, 15 min treatment, strain range 5-10%
  stiffness (elastic modulus): 6.47±2.23 MPa
Ex vivo porcine corneas; 0.2 M BS^3 in 0.5 M carbonate:bicarbonate 9:1, 30 min treatment, strain range 5-10%
  stiffness (elastic modulus): 4.84±2.02 MPa
Rat corneas
  reduction in corneal thickness in the treated eye vs contralateral control: 42±29 μm
Rabbit corneas [4]
  reduction in corneal thickness in the treated eyes vs contralateral control: 100±20 μm
